Earlier results, collected in patent publication US20100183687A1, “PROCESS FOR PREPARING PARTICLES OF OPIOIDS AND COMPOSITIONS PRODUCED THEREBY” (priority 2009, published 2010).

Conditions: water

Structure (SMILES): COc1ccc2c3c1O[C@H]1C(=O)CC[C@@]4(O)[C@@H](C2)N(C)CC[C@]314.Cl [oxycodone hydrochloride]
- solubility at neutral pH: 100 mg/ml
